Test results from patent US20240270809A1, “ORAL GLP RECEPTOR AGONISTS” (priority 2020, published 2024).
Positions of bridges follow the written chain, without caps; N, C: chain ends. Non-standard residues stand in square brackets, D forms with d. Residues, ends and D or L forms follow the SMILES beside them. *: point of attachment. Malonyl(2,2-Me2,histaminyl) = CC(C)(C(=O)NCCc1cnc[nH]1)C(=O)*; Ala(1H-tetrazol-5-yl) = N[C@@H](Cc1nnn[nH]1)C(=O)O; Nle = CCCC[C@H](N)C(=O)O; Aib = CC(C)(N)C(=O)O; Alloc = C=CCOC(=O)*

What was measured:
[1] = target: T1, human GLP2 receptor (Homo sapiens, UniProt O95838); assay: cAMP accumulation assay, functional agonism of human GLP2 receptor; format: cell-based; details: HEK cells infected with human GLP2 receptor BacMam virus, HTRF cAMP; for Emax: HEK293, read-out: Human GLP-2R agonist cAMP Emax; for EC50: read-out: Human GLP-2R agonist cAMP pEC50 (converted)
T1 construct: expressed in transfected cells; host or cells: HEK cells, BacMam virus transduction
T1 sequence (O95838 1-553): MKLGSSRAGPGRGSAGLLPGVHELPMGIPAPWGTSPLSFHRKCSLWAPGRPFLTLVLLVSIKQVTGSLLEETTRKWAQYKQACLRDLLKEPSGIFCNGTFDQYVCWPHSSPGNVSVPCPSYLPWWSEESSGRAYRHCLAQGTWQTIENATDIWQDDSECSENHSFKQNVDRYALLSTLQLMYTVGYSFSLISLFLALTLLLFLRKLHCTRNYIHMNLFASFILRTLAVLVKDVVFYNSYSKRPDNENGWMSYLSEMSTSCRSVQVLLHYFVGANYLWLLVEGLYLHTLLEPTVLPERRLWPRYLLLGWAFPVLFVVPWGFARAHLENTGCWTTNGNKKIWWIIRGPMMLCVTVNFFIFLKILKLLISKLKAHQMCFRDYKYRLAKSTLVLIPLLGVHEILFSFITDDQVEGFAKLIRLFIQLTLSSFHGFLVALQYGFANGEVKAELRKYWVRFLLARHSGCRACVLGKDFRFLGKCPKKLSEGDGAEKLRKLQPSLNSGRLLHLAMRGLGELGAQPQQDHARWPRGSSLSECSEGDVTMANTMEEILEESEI
Protocol: (§1) CAMP production upon agonist stimulation of human GLP2 or GLP1 receptor was assessed utilizing HiRange cAMP kit (Cisbio). In brief, HEK cells were infected with either human GLP2 or GLP1 receptor BacMam virus for 24 hours and frozen for later use in the assay. […] Cells were prepared in the assay buffer (HBSS (Lonza) supplemented with 0.5 mM IBMX (Tocris)). After 45 min incubation at 37° C., the reaction was stopped by addition of the HTRF detection reagents in the lysis buffer provided in the kit.

[2] = target: T2, human GLP1 receptor (Homo sapiens, UniProt P43220); assay: cAMP accumulation assay, functional agonism of human GLP1 receptor; format: cell-based; details: HEK cells infected with human GLP1 receptor BacMam virus, HTRF cAMP; for Emax: HEK293, read-out: Human GLP-1R agonist cAMP Emax; for EC50: read-out: Human GLP-1R agonist cAMP pEC50 (converted)
T2 construct: expressed in transfected cells; host or cells: HEK cells, BacMam virus transduction
Protocol: as §1

T2 sequence (P43220 24-463): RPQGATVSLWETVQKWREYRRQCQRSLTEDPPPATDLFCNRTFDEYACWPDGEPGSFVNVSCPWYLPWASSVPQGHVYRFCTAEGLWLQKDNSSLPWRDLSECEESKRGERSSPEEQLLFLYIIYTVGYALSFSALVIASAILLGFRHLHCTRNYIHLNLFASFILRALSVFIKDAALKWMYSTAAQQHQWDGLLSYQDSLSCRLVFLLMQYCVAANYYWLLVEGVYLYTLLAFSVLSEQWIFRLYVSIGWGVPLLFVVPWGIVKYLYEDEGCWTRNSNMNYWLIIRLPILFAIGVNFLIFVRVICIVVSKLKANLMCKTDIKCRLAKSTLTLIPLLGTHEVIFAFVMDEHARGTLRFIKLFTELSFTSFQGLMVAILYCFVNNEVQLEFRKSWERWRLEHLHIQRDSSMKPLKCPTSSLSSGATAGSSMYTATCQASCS

Emax [1] [%] | Emax [2] [%] | EC50 [1] [pM] | EC50 [2] [pM] | Structure (SMILES)
104 | 92.5 | – | – | CCCC[C@H](NC(=O)[C@H](CCC(=O)O)NC(=O)[C@@H]1CC(=O)NCCCC[C@H](NC(=O)[C@H](CC(=O)O)NC(=O)C(C)(C)NC(=O)[C@@H](N)Cc2c[nH]cn2)C(=O)N[C@@H](CO)C(=O)N[C@@H](Cc2ccccc2)C(=O)N[C@@H](CO)C(=O)N1)C(=O)N[C@H](Cc1ccccc1)C(=O)N[C@H]1CCC(=O)NCCCC[C@@H](C(=O)N[C@@H](CCCCN)C(=O)N[C@@H](C)C(=O)N[C@@H](C)C(=O)NC(C)(C)C(=O)N[C@@H](CC(=O)O)C(=O)N[C@@H](Cc2ccccc2)C(=O)N[C@H](C(=O)N[C@H]2CCC(=O)NCCCC[C@@H](C(=O)N[C@H](C(=O)N[C@@H](CCCCN)C(N)=O)[C@@H](C)O)NC(=O)[C@H]([C@@H](C)CC)NC(=O)[C@H](CC(C)C)NC(=O)[C@H](Cc3c[nH]c4ccccc34)NC2=O)[C@@H](C)CC)NC(=O)[C@H](CC(=O)O)NC(=O)[C@H](CC(C)C)NC(=O)[C@H]([C@@H](C)CC)NC1=O [Example 5] (H-H[Aib]DKSFSDE[Nle][dF]EILDKKAA[Aib]DFIEWLIKTK-NH2; lactam 4-8, 12-16, 24-28 (inferred); N-terminus and C-terminus assumed)
104 | 94.1 | 251 | 631 | CCCC[C@@H]1NC(=O)[C@H](CCC(=O)O)NC(=O)[C@@H](NC(=O)[C@H](CO)NC(=O)[C@H](Cc2ccccc2)NC(=O)[C@H](CO)NC(=O)CNC(=O)[C@H](Cc2nn[nH]n2)NC(=O)C(C)(C)C(=O)NCCc2c[nH]cn2)CCCCNC(=O)C[C@@H](C(=O)N[C@H](C(=O)N[C@@H](CC(C)C)C(=O)N[C@@H](CC(=O)O)C(=O)N[C@H]2CCC(=O)NCCCC[C@@H](C(=O)N[C@@H](CC(=O)O)C(=O)N[C@@H](Cc3ccccc3)C(=O)N[C@H](C(=O)N[C@@H](CC(N)=O)C(=O)N[C@@H](Cc3c[nH]c4ccccc34)C(=O)N[C@@H](CC(C)C)C(=O)N[C@H](C(=O)N[C@@H](CCC(N)=O)C(=O)N[C@H](C(=O)N[C@H]3CCC(=O)NCCCC[C@@H](C(N)=O)NC(=O)[C@H]([C@@H](C)O)NC(=O)[C@H]([C@@H](C)CC)NC3=O)[C@@H](C)O)[C@@H](C)CC)[C@@H](C)CC)NC(=O)C(C)(C)NC(=O)C(C)(C)NC(=O)[C@H](CCCCN)NC2=O)[C@@H](C)CC)NC(=O)[C@@H](Cc2ccccc2)NC1=O [Example 16] ({Malonyl(2,2-Me2,histaminyl)}-[Ala(1H-tetrazol-5-yl)]GSFSKE[Nle][dF]DILDEK[Aib][Aib]KDFINWLIQTEITK-NH2; lactam 6-10, 14-18, 28-31; C-terminus assumed)
102 | 94.3 | 25.1 | 794 | C=CCOC(=O)NCCCC[C@@H]1NC(=O)[C@@H](NC(=O)[C@H](CC(=O)O)NC(=O)[C@H](CC(C)C)NC(=O)[C@@H](NC(=O)[C@@H]2CC(=O)NCCCC[C@H](NC(=O)[C@H](CO)NC(=O)[C@H](Cc3ccccc3)NC(=O)[C@H](CO)NC(=O)CNC(=O)[C@H](Cc3nn[nH]n3)NC(=O)C(C)(C)C(=O)NCCc3c[nH]cn3)C(=O)N[C@@H](CCC(=O)O)C(=O)N[C@@H](CCCC)C(=O)N[C@H](Cc3ccccc3)C(=O)N2)[C@@H](C)CC)CCC(=O)NCCCC[C@@H](C(=O)N[C@@H](CC(=O)O)C(=O)N[C@@H](Cc2ccccc2)C(=O)N[C@H](C(=O)N[C@@H](CC(N)=O)C(=O)N[C@@H](Cc2c[nH]c3ccccc23)C(=O)N[C@@H](CC(C)C)C(=O)N[C@H](C(=O)N[C@@H](CCC(N)=O)C(=O)N[C@H](C(=O)N[C@H]2CCC(=O)NCCCC[C@@H](C(N)=O)NC(=O)[C@H]([C@@H](C)O)NC(=O)[C@H]([C@@H](C)CC)NC2=O)[C@@H](C)O)[C@@H](C)CC)[C@@H](C)CC)NC(=O)[C@H](C)NC(=O)[C@H](C)NC1=O [Example 23] ({Malonyl(2,2-Me2,histaminyl)}-[Ala(1H-tetrazol-5-yl)]GSFSKE[Nle][dF]DILDEK(Alloc)AAKDFINWLIQTEITK-NH2; lactam 6-10, 14-18, 28-31 (inferred); C-terminus assumed)
